Results on 33 compounds are retold here after patent publication US10870660B2, “Nitrogen-containing condensed ring compounds having dopamine D3 antagonistic effect” (Shionogi & Co., Ltd., priority 2016, dated 2020).

For test [1], the system named is Male Crl: WI rats. Description: Effect of suppressing impulsivity in rat (T-maze delayed large reward choice, i.p.). Format: in vivo. The following applies: 3 mg/kg, daily over 5 days, tested 40 min after administration, compared with vehicle control group. An excerpt: Male Crl: WI rats were obtained at post-natal day 14 and weaning was occurred at post-natal day 21. Starting from then, the rats were housed 2-3 per cage and food-restricted (Day 1). The feeding amount was 5 g/day at post-natal day 21-28 (Day 1-8), 8.5 g/day at post-natal day 29-32 (Day 9-12), and 10 g/day at post-natal day 33-36 (Day 13-16), preventing their body weight from being 60% or less of the weight of the free feeding rats.
4 days after the beginning of the food restriction (Day 5), pellets were put on goal boxes located in the left-side and the right-side of T-maze. Then, the rats were allowed to freely explore the T-maze-box for 5 min to get habituated to the T-maze box and learn that the pellets were put on the goal boxes located in the left-side and the right-side. For 4 consecutive days from the next day (Day 6-9), one pellet (20 mg×1) was put in one side of the goal box as a small reward, and 5 pellets (20 mg×5) were put in the other side of the goal box as a large reward, and the rats were trained to learn their positions. Each rat underwent 10-trial per day trainings. […] The evaluations of the drug efficacy were started on Day 12. The compounds of the present invention were dissolved in distilled water containing 3% of 1 mol/L hydrochloric acid and administered i.p. to the trained rats to attain the dose of 1, 3 or 10 mg/kg. […]

Test [2] addresses human recombinant dopamine D3 receptor (Homo sapiens (Human), UniProt P35462). Description: Test of binding inhibition for the human dopamine D3 receptor ([3H]-Metylspiperone SPA binding). The following applies: [3H]-Metylspiperone 2 nM, Jump-In HEK cell membranes, read-out: hD3_Ki.
Test [3] addresses human recombinant dopamine D2 receptor (Homo sapiens (Human), UniProt P14416). Description: Test of binding inhibition for the human dopamine D2 receptor ([3H]-Metylspiperone SPA binding). To be noted: [3H]-Metylspiperone 1.2 nM, Jump-In HEK cell membranes, read-out: hD2_Ki. A digest of the protocol: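 Scintillation proximity binding with HEK membranes expressing human D2 receptor (2 μg/well), 1.2 nM [3H]-methylspiperone, in Tris-HCl pH 7.4 with NaCl, MgCl2, KCl and CaCl2; 120 min at 25° C.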

Sequence of human recombinant dopamine D3 receptor (P35462 whole entry): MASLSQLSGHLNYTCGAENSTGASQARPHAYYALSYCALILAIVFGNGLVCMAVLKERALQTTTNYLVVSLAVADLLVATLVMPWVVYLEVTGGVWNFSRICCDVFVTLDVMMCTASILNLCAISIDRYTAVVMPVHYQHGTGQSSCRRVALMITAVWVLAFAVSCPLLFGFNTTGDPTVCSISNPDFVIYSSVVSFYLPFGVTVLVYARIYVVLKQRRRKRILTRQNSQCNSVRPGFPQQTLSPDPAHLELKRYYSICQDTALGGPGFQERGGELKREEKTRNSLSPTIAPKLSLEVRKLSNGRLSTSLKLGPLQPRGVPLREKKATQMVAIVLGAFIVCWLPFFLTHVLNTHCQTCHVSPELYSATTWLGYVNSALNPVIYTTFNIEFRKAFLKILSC
Sequence of human recombinant dopamine D2 receptor (P14416 whole entry): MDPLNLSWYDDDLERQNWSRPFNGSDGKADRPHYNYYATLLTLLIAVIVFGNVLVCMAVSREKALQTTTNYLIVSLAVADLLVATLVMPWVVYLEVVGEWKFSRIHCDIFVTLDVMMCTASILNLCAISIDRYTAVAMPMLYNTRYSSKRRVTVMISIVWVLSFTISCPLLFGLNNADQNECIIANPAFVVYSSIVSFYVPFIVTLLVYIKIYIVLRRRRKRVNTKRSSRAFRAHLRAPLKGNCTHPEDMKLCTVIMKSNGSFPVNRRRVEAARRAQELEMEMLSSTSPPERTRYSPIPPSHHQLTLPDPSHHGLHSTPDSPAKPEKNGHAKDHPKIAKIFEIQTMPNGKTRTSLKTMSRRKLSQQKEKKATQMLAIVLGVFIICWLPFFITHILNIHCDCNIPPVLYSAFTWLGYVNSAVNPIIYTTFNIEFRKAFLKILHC

In the case of `O=C(N[C@H]1CC[C@H](CCN2CCc3sc(OCC(F)F)nc3C2)CC1)c1cccc2ncccc12` [Compound I-085], the “number of choices of the large reward during total 50 trials of 5 days” value in test [1] is “significantly increased”.

As for `Cn1cc2c(C(=O)N[C@H]3CC[C@H](CCN4CCc5ccc(OCC(F)(F)F)nc5CC4)OC3)cccc2n1` [II-087], the Ki came out at 0.059 nM in test [2] and 260 nM in test [3].

Regarding `CC(C)Oc1ccc2c(n1)CCN(CC[C@H]1CC[C@H](NC(=O)c3cccc4nn(C)cc34)CC1)CC2` [II-050], the Ki is 0.51 nM in test [2] and above 1800 nM in test [3].

As to `CC(C)C(=O)N[C@H]1CC[C@H](CCN2CCc3nc(OCC(F)(F)F)sc3CC2)CC1` [III-031], the Ki in test [2] turned out to be 0.31 nM; in test [3], 240 nM.

Consider `Cn1cc2c(C(=O)N[C@H]3CC[C@H](CCN4CCc5nc(OCC(F)F)sc5CC4)CC3)cccc2n1` [II-026], for which the figures for the Ki in test [2] and in test [3] were 0.2 nM and above 1700 nM, respectively.

Consider `O=C(CCC(F)(F)F)N[C@H]1CC[C@H](CCN2CCc3sc(N4CC(F)(F)C4)nc3C2)CC1` [III-580], for which the Ki amounted to 0.25 nM in test [2] and 540 nM in test [3].

`Cn1cc2c(C(=O)N[C@H]3CC[C@H](CCN4CCc5sc(OCC(C)(F)F)nc5C4)CC3)cccc2n1` [III-441]: the Ki was 0.24 nM in test [2] and 170 nM in test [3].

On to `Cc1nc(CC(=O)N[C@H]2CC[C@H](CCN3CCc4ccc(OCC(F)(F)F)nc4CC3)OC2)no1` [III-001], for which the Ki in test [2] turned out to be 0.5 nM; in test [3], 1100 nM.

As to `Cc1cc(OCC(=O)N[C@H]2CC[C@H](CCN3CCc4ccc(OCC(F)(F)F)nc4CC3)CC2)no1` [II-078], the Ki in test [2] is 0.075 nM; in test [3], above 1800 nM.

On to `Cn1ncc(CC(=O)N[C@H]2CC[C@H](CCN3CCc4sc(OCC(C)(F)F)nc4C3)CC2)c1F` [III-548], for which the Ki in test [2] turned out to be 0.46 nM; in test [3] it was 830 nM.

Turning to `Cc1ncc(CC(=O)N[C@H]2CC[C@H](CCN3CCc4ccc(OCC(F)(F)F)nc4CC3)OC2)o1` [III-231], the Ki in test [2] is 0.7 nM; in test [3], 490 nM.

`Cc1cc2c(C(=O)N[C@H]3CC[C@H](CCN4CCc5nc(OCC(F)(F)F)sc5CC4)OC3)cccn2n1` [III-169]: the Ki in test [2] amounted to 0.4 nM; in test [3], 380 nM.

With `O=C(NCCCCN1CCc2ccc(OCC(F)(F)F)nc2CC1)c1cc2ccccc2[nH]1` [II-105], the results for the Ki in test [2] and in test [3] were 0.11 nM and 1100 nM, respectively.

`Cc1ncccc1C(=O)N[C@H]1CC[C@H](CCN2CCc3sc(OCC(C)(F)F)nc3C2)CC1` [III-555]: the Ki came out at 0.4 nM in test [2] and 310 nM in test [3].

With `COc1cc(CC(=O)N[C@H]2CC[C@H](CCN3CCc4ccc(OCC(F)(F)F)nc4CC3)CC2)on1` [II-077], the Ki in test [2] is 0.095 nM; in test [3] it was above 1800 nM.

Turning to `Cn1cc2c(C(=O)N[C@H]3CC[C@H](CCN4CCc5ccc(OCC(F)F)nc5CC4)CC3)cccc2n1` [II-057], the Ki was 0.014 nM in test [2] and above 1700 nM in test [3].

Regarding `Cc1ncc(CC(=O)N[C@H]2CC[C@H](CCN3CCc4ccc(OCC(F)F)nc4CC3)CC2)s1` [II-005], the Ki in test [2] worked out at 0.085 nM; in test [3], 430 nM.

As to `Cn1cc(CC(=O)N[C@H]2CC[C@H](CCN3CCc4sc(OC5CCC(F)(F)C5)nc4C3)CC2)cn1` (some centres unmarked) [III-484], the Ki in test [2] turned out to be 0.44 nM; in test [3], 850 nM.

For `Cn1cc2c(C(=O)N[C@H]3CC[C@H](CCN4CCc5sc(OCC(F)(F)F)nc5C4)CC3)cccc2n1` [III-464], the Ki in test [2] turned out to be 0.37 nM; in test [3], 580 nM.

Turning to `Cn1cc2c(C(=O)N[C@H]3CC[C@H](CCN4CCc5sc(OCC(C)(F)F)nc5C4)CC3)ccc(F)c2n1` [III-666], the Ki in test [2] came out at 0.2 nM; in test [3], 210 nM.

For `Cc1nnc(CC(=O)N[C@H]2CC[C@](F)(CCN3CCc4nc(OCC(F)(F)F)sc4CC3)CC2)s1` [III-269], the Ki amounted to 0.36 nM in test [2] and 290 nM in test [3].

On to `O=C(N[C@H]1CC[C@H](CCN2CCc3cnc(CC4CC4)nc3C2)CC1)c1cccc2ncccc12` [Compound I-133], for which the Ki was 7.9 nM in test [2] and above 1700 nM in test [3].

Turning to `CN1Cc2c(C(=O)N[C@H]3CC[C@H](CCN4CCc5ccc(OCC(C)(F)F)nc5CC4)CC3)cccc2C1=O` [III-024], the Ki in test [2] turned out to be 0.012 nM; in test [3] it was 140 nM.

On to `Cc1nc(CC(=O)N[C@H]2CC[C@H](CCN3CCc4sc(N5CC(F)(F)C5)nc4C3)CC2)no1` [III-512], for which the Ki is 0.9 nM in test [2] and 1100 nM in test [3].

As to `O=C(N[C@H]1CC[C@H](CCN2CCc3ccc(OCC(F)F)nc3C2)CC1)c1cccc2ncccc12` [Compound I-139], the Ki in test [2] is 0.69 nM; in test [3], above 1700 nM.

Turning to `Cc1ncccc1C(=O)N[C@H]1CC[C@](F)(CCN2CCc3nc(OCC(F)(F)F)sc3CC2)CC1` [III-252], the Ki in test [2] came out at 0.43 nM; in test [3], 590 nM.

On to `Cn1cc(/C=C/C(=O)N[C@H]2CC[C@H](CCN3CCc4nc(OCC(F)(F)F)sc4CC3)OC2)cn1` [III-168], for which the figures for the Ki in test [2] and in test [3] were 0.13 nM and 140 nM, respectively.

Turning to `Cn1cc2c(C(=O)N[C@H]3CC[C@H](CCN4CCc5sc(COC(F)(F)F)nc5C4)CC3)cccc2n1` [III-623], the values for the Ki in test [2] and in test [3] were 0.83 nM and above 1800 nM, respectively.

Turning to `CC1c2nc(OCC(F)F)sc2CCN1CC[C@H]1CC[C@H](NC(=O)c2cccc3ncccc23)CC1` (some centres unmarked) [Compound I-101], the figures for the Ki in test [2] and in test [3] were 8.1 nM and above 1700 nM, respectively.

`Cc1nnc(CC(=O)N[C@H]2CC[C@](F)(CCN3CCc4nc(OCC(F)(F)F)sc4CC3)CC2)o1` [III-253]: the Ki amounted to 0.58 nM in test [2] and 610 nM in test [3].

Take `Cc1ncc(OCC(=O)N[C@H]2CC[C@](F)(CCN3CCc4nc(OCC(F)(F)F)sc4CC3)CC2)cn1` [III-254]: the Ki in test [2] turned out to be 0.43 nM; in test [3] it was 570 nM.

On to `Cc1nnc(CC(=O)N[C@H]2CC[C@H](CCN3CCc4nc(OCC(F)F)sc4CC3)CC2)o1` [III-273], for which the results for the Ki in test [2] and in test [3] were 0.78 nM and 570 nM, respectively.

Consider `Cc1ncc(CC(=O)N[C@H]2CC[C@H](CCN3CCc4nc(OCC(F)(F)F)sc4CC3)CC2)o1` [II-085], for which the Ki stood at 0.096 nM in test [2] and 740 nM in test [3].
